{
  "source": "patent US20230119360A1",
  "about": "“PHARMACEUTICAL COMBINATION OF A THERAPEUTIC OLIGONUCLEOTIDE TARGETING HBV AND A TLR7 AGONIST FOR TREATMENT OF HBV” (priority 2019, published 2023)",
  "key": {"HBsAg": {"system": "HBsAg", "method": "Preclinical potency was further evaluated in mice following a QW×3 dosing regimen in which HBV-254 was subcutaneously administered at 3 mg/kg (FIG. 23). The administration points are indicated by arrows in the figure. HBsAg levels were monitored in both oligonucleotide treated and untreated control mice for a period spanning 147 days.\nEach oligonucleotide, including HBV-254, was evaluated at three concentrations (1, 10, and 100 pM) in HeLa cells using the fluorescence-based reporter assay."}, "HBV [1]": {"system": "HBV", "assay": "AAV-HBV mouse model, single dose siRNA vs ASO: serum HBsAg", "type": "in vivo, C57BL/6 mice", "conditions": "6.6 mg/kg single subcutaneous injection Day 0", "method": "The purpose of this study was to evaluate the in vivo pharmacology and efficacy of certain compounds in AAV-HBV mouse model.\nRecombinant adeno-associated virus (AAV) carrying the Hepatitis B Virus (HBV) genome rAAV8-1.3HBV ayw (Lot No: 2019032703) was purchased from Beijing FivePlus Molecular Medicine Institute, and stored at −70° C. before use.\nOne hundred and fifteen (115) male C57BL/6 mice were obtained. On Pre-dose Day 0, all the animals were subjected to injection through tail vein with 1×10^11 vector genome of AAV-HBV for model induction. Based on baseline serum viral markers and body weight on Pre-dose Day 24, 80 qualified HBV-infected mice were selected.\nThe 80 selected mice were randomized into 4 groups for compound treatment. Sterile water, DCR-AUD1, DCR-5219 (9 mg/kg), and CMP ID NO: 15_1 (6.6 mg/kg) were subcutaneously injected once at 5 mL/kg on Day 0. The dosing volume was […].\nWhole blood was collected to prepare serum (15 μL per mouse) twice weekly during Day 0˜21. On Day 21, the mice were euthanized. […]\nBaseline serum levels of HBsAg were determined by ARCHITECT i2000 (Abbott Laboratories, Lake Bluff, IL, USA) and supporting reagents. Baseline serum HBV DNA level was measured by using ABI7500 (Applied Biosystems, Foster City, Calif., USA) and detection kit (Sansure Biotech Inc., Changsha, Hunan, China)."}, "HBV [2]": {"system": "HBV", "assay": "AAV/HBV mouse model: HBV-DNA levels in serum (qPCR)", "type": "in vivo, C57BL/6 mice", "text": "(§1) The AAV-HBV mouse model is generated by injecting C57BL/6 mice with recombinant adeno-associated virus harboring a replicable HBV genome (AAV-HBV). The rAAV8-1.3 HBV ayw virus stock was purchased from Beijing FivePlus Molecular Medicine Institute (Beijing, China).\nThe animals (male, aged 4-5 weeks upon arrival) were purchased from SLAC Laboratory Animal Co. Ltd (Shanghai, China), acclimatized in the animal facility for 5-7 days, and then injected with 1×10^11 vector genome of AAV-HBV (diluted in 200 μL of PBS) through the tail vein. Persistence expression of HBV genome can be established after three weeks, with high levels of HBV viral markers including HBV DNA, HBsAg, and HBeAg in mouse serum. […]\nQuantification of extracted HBV DNA was performed using a Taqman qPCR machine (ViiA7, life technologies). […] DNA copy numbers were calculated from Ct values based on a HBV plasmid DNA standard curve by the ViiA7 software.\nTo evaluate the combination of the anti-HBV ASO and the TLR7 agonist in an in vivo system, a mouse model of chronic HBV infection was used. […] The effect on these viral markers upon treatment with the anti-HBV ASO of CMP ID NO: 15_1 (table 2, and FIG. 4) dosed at 1.5 mg/kg or 7.5 mg/kg and the TLR7 agonist of CMP ID NO: VI (table 3) dosed with […] every other day (QOD) or once weekly (QW) in monotherapy or in combination has been evaluated."}, "HBV [3]": {"system": "HBV", "assay": "AAV/HBV mouse model: HBsAg levels in serum (CLIA)", "type": "in vivo, C57BL/6 mice", "parameters": "HBsAg levels in serum, Average ± SD: unit not given here", "conditions": "for HBsAg levels in serum, Average ± SD: AAV/HBV mice, anti-HBV ASO 7.5 mg/kg weekly, TLR7 100 mg/kg weekly (QW)", "text": "as §1\nThe animals (male, aged 4-5 weeks upon arrival) were purchased from SLAC Laboratory Animal Co. Ltd (Shanghai, China), acclimatized in the animal facility for 5-7 days, and then injected with 1×10^11 vector genome of AAV-HBV (diluted in 200 μL of PBS) through the tail vein. Persistence expression of HBV genome can be established after three weeks, with high levels of HBV viral markers including HBV DNA, HBsAg, and HBeAg in mouse serum. With stable HBV viremia and competent immune system of the C57BL/6 mice, the AAV-HBV mouse model was used to evaluate the in vivo anti-HBV efficacy of the compounds. The in-life part of the AAV-HBV study was conducted through contracted service at Covance Pharmaceutical Research and Development (Shanghai) Co. Ltd. (Covance Shanghai) and the post-life analysis using the serum was performed internally at Roche Innovation Center Shanghai (RICS).\nSeven days before compound treatment, blood samples were collected for serum preparation (˜15 μL), and based on HBV DNA, HBsAg levels in serum and body weight, the AAV-HBV infected animals were stratified into the different treatment groups.\nSaline (Group 01) and anti-HBV ASO of CMP ID NO: 15_1 at 1.5 or 7.5 mg/kg were dosed sub subcutaneously once a week during Day 0-49 on Days 0, 7, 14, 21, 28, 35, 42 and 49. TLR7 agonist of CMP ID NO: VI 100 mg/kg was administered by oral gavage once every other day during Day 0-55 (QOD) or once weekly during Day 0-49 on Days 0, 7, 14, 21, 28, 35, 42 and 49 (QW). The animals were weekly bled via retro-orbital sinus for sample collection throughout the study. • Oligonucleotide Synthesis\nSerum HBsAg levels were determined in the serum of infected AAV-HBV mouse using the HBsAg chemoluminescence immunoassay (CLIA) (Autobio diagnostics Co. Ltd., Zhengzhou, China, Cat. no.CL0310-2), according to the manufacturer's protocol. Briefly, 50μl of serum was transferred to the antibody coated microtiter plate and 50 μl of enzyme conjugate reagent was added. The plate was incubated for 60 min on a shaker at room temperature before all wells were washed six times with washing buffer using an automatic washer. 25 μl of substrate A and then 25 μl of substrate B was added to each well. The plate was incubated for 10 min at RT before luminescence was measured using an Envision luminescence reader (Perkin Elmer). HBsAg is given in the unit IU/ml; where 1 ng HBsAg=1.14 IU.\nTo evaluate the combination of the anti-HBV ASO and the TLR7 agonist in an in vivo system, a mouse model of chronic HBV infection was used. In the AAV/HBV mouse model described in the Materials and Method a persistent HBV infection is established resulting in expression of viral markers (HBsAg, HBeAg, HBV DNA) detectable in plasma. The effect on these viral markers upon treatment with the anti-HBV ASO of CMP ID NO: 15_1 (table 2, and FIG. 4) dosed at 1.5 mg/kg or 7.5 mg/kg and the TLR7 agonist of CMP ID NO: VI (table 3) dosed with […] every other day (QOD) or once weekly (QW) in monotherapy or in combination has been evaluated."}, "HBV [4]": {"system": "HBV", "assay": "Entecavir combination study in HBV-expressing mouse (HDI model)", "type": "in vivo", "conditions": "HDI mice; monotherapy", "method": "The RNAi oligonucleotides targeting the S antigen impact both the viral polymerase and HBsAg protein. In this study, the combinational effects of HBV(s)-219P2 as a monotherapy and combinational treatment with entecavir was explored in an HBV-expressing mouse (HDI model) for antiviral activity.\nMice were administered daily oral dosing of 500 ng/kg Entecavir (ETV) for 14 days. A single subcutaneous administration of HBV(s)-219P2 took place. Circulating viral load (HBV DNA) was measured by qPCR (FIG. 25A), plasma HBsAg level was measured by ELISA (FIG. 25B), and liver HBV mRNA and pgRNA levels were measured by qPCR."}},
  "data": [
    {"compound": "HBV-254: HBsAg-targeting duplex oligonucleotide, sense SEQ ID NO: 55, antisense SEQ ID NO: 56 (sense GUGGUGGACUUCUCUCAAUAGCAGCCGAAAGGCUGC; antisense UAUUGAGAGAAGUCCACCACGG; chemistry not given here)", "values": [
      {"measurement": "HBsAg levels", "setting": "HBsAg; HDI-mice, single subcutaneous dose, increasing dosage", "value": "systematically reduced HBsAg levels in mice with increasing dosage"},
      {"measurement": "HBsAg levels relative to control", "setting": "HBsAg; mice, QW×3, 3 mg/kg subcutaneous, monitored 147 days", "value": "Diminished HBsAg levels persisted in treated mice throughout the entirety of the study"}
    ]},
    {"compound": "5′-GN2-C6ocoaoGs^mCsGstsasasasgsasgsasGsG-3′ [CMP ID NO: 15_1]", "values": [
      {"measurement": "time until which decrease in HBsAg was maintained before rebound", "setting": "HBV [1]", "value": "about 10 days"},
      {"measurement": "HBsAg level over time", "setting": "HBV [1]; 21 days", "value": "rapid decrease in HBsAg level"},
      {"measurement": "reduction in HBV-DNA", "setting": "HBV [2]; monotherapy at both 1.5 mg/kg and 7.5 mg/kg", "value": "rapid reduction in HBV-DNA to below the lower level of quantification"},
      {"measurement": "HBsAg levels in serum, Average ± SD", "setting": "HBV [3]; D 0", "value": "4.30 ± 0.30"},
      {"measurement": "HBsAg levels in serum, Average ± SD", "setting": "HBV [3]; D 7", "value": "1.71 ± 0.24"},
      {"measurement": "HBsAg levels in serum, Average ± SD", "setting": "HBV [3]; D 14", "value": "1.83 ± 0.21"},
      {"measurement": "HBsAg levels in serum, Average ± SD", "setting": "HBV [3]; D 21", "value": "1.43 ± 0.17"},
      {"measurement": "HBsAg levels in serum, Average ± SD", "setting": "HBV [3]; D 28", "value": "1.30 ± 0.19"},
      {"measurement": "HBsAg levels in serum, Average ± SD", "setting": "HBV [3]; D 35", "value": "1.36 ± 0.26"},
      {"measurement": "HBsAg levels in serum, Average ± SD", "setting": "HBV [3]; D 42", "value": "1.30 ± 0.16"},
      {"measurement": "HBsAg levels in serum, Average ± SD", "setting": "HBV [3]; D 49", "value": "1.56 ± 0.16"},
      {"measurement": "HBsAg levels in serum, Average ± SD", "setting": "HBV [3]; D 56", "value": "1.32 ± 0.24"},
      {"measurement": "HBsAg levels in serum, Average ± SD", "setting": "HBV [3]; D 63", "value": "1.33 ± 0.47"},
      {"measurement": "HBsAg levels in serum, Average ± SD", "setting": "HBV [3]; D 70", "value": "2.18 ± 0.91"},
      {"measurement": "HBsAg levels in serum, Average ± SD", "setting": "HBV [3]; D 77", "value": "2.70 ± 0.85"},
      {"measurement": "HBsAg levels in serum, Average ± SD", "setting": "HBV [3]; D 84", "value": "3.17 ± 0.60"},
      {"measurement": "HBsAg levels in serum, Average ± SD", "setting": "HBV [3]; D 91", "value": "3.82 ± 0.38"},
      {"measurement": "HBsAg levels in serum, Average ± SD", "setting": "HBV [3]; D 98", "value": "3.64 ± 0.81"},
      {"measurement": "HBsAg levels in serum, Average ± SD", "setting": "HBV [3]; D 105", "value": "3.61 ± 0.97"},
      {"measurement": "HBsAg levels in serum, Average ± SD", "setting": "HBV [3]; D 111", "value": "3.40 ± 1.49"},
      {"measurement": "suppression of HBsAg below the detection limit", "setting": "HBV [3]; anti-HBV ASO 1.5 mg/kg monotherapy", "value": "not capable of suppressing HBsAg to a level below the detection limit"}
    ]},
    {"compound": "CC[C@H](OC(C)=O)[C@@H]1C[C@@H](O)[C@H](n2c(=O)sc3cnc(N)nc32)O1", "note": "[CMP ID NO: VI, [(1S)-1-[(2S,4R,5R)-5-(5-amino-2-oxo-thiazolo[4,5-d]pyrimidin-3-yl)-4-hydroxy-tetrahydrofuran-2-yl]propyl] acetate]", "values": [
      {"measurement": "HBV DNA rebound, distance from control group during follow-up", "setting": "HBV [2]; TLR7 agonist monotherapy, QOD or QW", "value": "≤ 1", "unit": "log"},
      {"measurement": "day of lowest HBsAg", "setting": "HBV [3]; TLR7 agonist alone (FIG. 10A)", "value": 42, "unit": "days"}
    ]},
    {"compound": "C=C1[C@H](CO)[C@@H](O)C[C@@H]1n1cnc2c(=O)[nH]c(N)nc21", "note": "[entecavir, Entecavir]", "values": [
      {"measurement": "circulating HBsAg", "setting": "HBV [4]", "value": "No significant decrease"},
      {"measurement": "hepatic viral RNAs", "setting": "HBV [4]", "value": "No significant decrease"}
    ]}
  ]
}
